Measured values reported in patent US9833497B2, “Human originated EGF domain proteins and use of the same” (CHENGDU SOURCEBIO LIMITED-LIABILITY COMPANY, priority 2013, dated 2017).

Key:
Assay type in all cases: cell-based
[1] = test system: E. coli BL21; experiment: MIC against Gram-negative bacteria: E. coli BL21
In short: (§1)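 Purified recombinant human EGF domain proteins are tested by broth dilution in LB against a 5×10^5 CFU/mL inoculum, with two-fold serial dilutions run in triplicate. Plates are incubated at 37° C with shaking, and the MIC is read as the lowest protein concentration without growth.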

[2] = test system: Aeromonas hydrophila; experiment: MIC against Gram-negative bacteria: Aeromonas hydrophila
In short: as §1

[3] = test system: Proteus vulgaris; experiment: MIC against Gram-negative bacteria: Proteus vulgaris
In short: as §1

[4] = test system: Proteus mirabilis; experiment: MIC against Gram-negative bacteria: Proteus mirabilis
In short: as §1

[5] = test system: Moraxella catarrhalis; experiment: MIC against Gram-negative bacteria: Moraxella catarrhalis
In short: as §1

[6] = test system: Klebsiella pneumonia; experiment: MIC against Gram-negative bacteria: Klebsiella pneumonia
In short: as §1

[7] = test system: Pseudomonas aeruginosa; experiment: MIC against Gram-negative bacteria: Pseudomonas aeruginosa
In short: as §1

[8] = test system: E. coli DH5α; experiment: Antibacterial activity: MIC and growth curve against E. coli DH5α in 96-well plate; settings: minimal inhibitory concentration against E. coli DH5α; 96-well plate, 5×10^5 CFU/mL, 37° C., judged after 8 h
In short: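 Log-phase DH5α (OD600 about 0.5, 37° C, 185 rpm in LB) was pelleted, resuspended in fresh LB and seeded at 5×10^5 CFU/mL with recombinant protein at 50, 25 and 12.5 μg/mL (two-fold series), in triplicate. Plates were shaken at 175 rpm, 37° C, and OD600 was read every 30 min. MIC was the lowest concentration with no growth.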

[9] = test system: Serratia marcescens; experiment: MIC against Gram-negative bacteria: Serratia marcescens
In short: as §1

[10] = test system: Citrobacter diversus; experiment: MIC against Gram-negative bacteria: Citrobacter diversus
In short: as §1

[11] = test system: Enterobacter cloacae; experiment: MIC against Gram-negative bacteria: Enterobacter cloacae
In short: as §1

[12] = E. coli BL21, 10 h cultivation at 37° C.
[13] = A. hydrophila, 10 h cultivation at 37° C.
[14] = P. vulgaris, 10 h cultivation at 37° C.
[15] = P. mirabilis, 10 h cultivation at 37° C.
[16] = M. catarrhalis, 10 h cultivation at 37° C.
[17] = K. pneumonia, 10 h cultivation at 37° C.
[18] = P. aeruginosa, 10 h cultivation at 37° C.
[19] = S. marcescens, 10 h cultivation at 37° C.
[20] = C. diversus, 10 h cultivation at 37° C.
[21] = E. cloacae, 10 h cultivation at 37° C.
[22] = 96-well plate, 5×10^5 CFU/mL, 37° C., 10 h
[23] = 10 h cultivation at 37° C., 5×10^5 CFU/mL, two-fold serial dilution

PRT1039 (SSGICDEASCIHGGTCTAIKADSYICLCPLGFKGRHCE; listed as Homo sapiens)
12.5 mg/L: MIC [3, 14] | MIC [5, 16] | MIC [6, 17]
25 mg/L: MIC [11, 21]
50 mg/L: MIC [1, 12] | MIC [2, 13] | MIC [4, 15] | MIC [7, 18] | MIC [8] | MIC [9, 19] | MIC [10, 20]

PRT815 (YGPSCQTRCSCANDGHCHPATGHCSCAPGWTGFSCQ; listed as Homo sapiens)
50 µg/mL: MIC (μg/mL) M. catarrhalis ([5]; M. catarrhalis, 10 h cultivation at 37° C., 5×10^5 CFU/mL)
25 µg/mL: MIC (μg/mL) P. mirabilis ([4]; P. mirabilis, 10 h cultivation at 37° C., 5×10^5 CFU/mL) | MIC (μg/mL) S. marcescens ([9]; S. marcescens, 10 h cultivation at 37° C., 5×10^5 CFU/mL) | MIC (μg/mL) C. diversus ([10]; C. diversus, 10 h cultivation at 37° C., 5×10^5 CFU/mL) | MIC (μg/mL) E. cloacae ([11]; E. cloacae, 10 h cultivation at 37° C., 5×10^5 CFU/mL)
25 mg/L: MIC [8]
12.5 µg/mL: MIC (μg/mL) E. coli BL21 ([1]; E. coli BL21, 10 h cultivation at 37° C., 5×10^5 CFU/mL) | MIC (μg/mL) A. hydrophila ([2]; A. hydrophila, 10 h cultivation at 37° C., 5×10^5 CFU/mL) | MIC (μg/mL) P. vulgaris ([3]; P. vulgaris, 10 h cultivation at 37° C., 5×10^5 CFU/mL) | MIC (μg/mL) K. pneumonia ([6]; K. pneumonia, 10 h cultivation at 37° C., 5×10^5 CFU/mL) | MIC (μg/mL) P. aeruginosa ([7]; P. aeruginosa, 10 h cultivation at 37° C., 5×10^5 CFU/mL)

PRT542 (CRCDIGGALGQSCEPRTGVCRC; listed as Homo sapiens)
50 mg/L: MIC against P. mirabilis [4, 22] | MIC against K. pneumonia [6, 22] | MIC against S. marcescens [9, 22] | MIC against C. diversus [10, 22]
25 mg/L: MIC against P. aeruginosa [7, 22] | MIC [8] | MIC against E. cloacae [11, 22]
12.5 mg/L: MIC against E. coli BL21 [1, 22] | MIC against A. hydrophila [2, 22] | MIC against P. vulgaris [3, 22] | MIC against M. catarrhalis [5, 22]

PRT1074 (QYRQCSGYCENFGTCQMAADGSRQCRCTAYFEGSRCE; listed as Homo sapiens)
12.5 mg/L: MIC E. coli BL21 [1, 23] | MIC A. hydrophila [2, 23] | MIC P. vulgaris [3, 23] | MIC P. mirabilis [4, 23] | MIC M. catarrhalis [5, 23] | MIC K. pneumonia [6, 23] | MIC S. marcescens [9, 23] | MIC C. diversus [10, 23] | MIC E. cloacae [11, 23]
50 mg/L: MIC P. aeruginosa [7, 23] | MIC [8]

PRT652 (DLDECAFPGVCPSGVCTNTAGSFSCKDCDGGYRPSPLGDSCE; listed as Homo sapiens)
25 mg/L: MIC E. coli BL21 [1, 22] | MIC A. hydrophila [2, 22] | MIC P. vulgaris [3, 22] | MIC M. catarrhalis [5, 22] | MIC K. pneumonia [6, 22]
50 mg/L: MIC P. aeruginosa [7, 22] | MIC S. marcescens [9, 22] | MIC C. diversus [10, 22]
12.5 mg/L: MIC P. mirabilis [4, 22] | MIC [8] | MIC E. cloacae [11, 22]

PRT446 (DVDECVGLQPVCPQGTTCINTGGSFQCVSPECPEGSGNVSYVKTSPFQCE; listed as Homo sapiens)
25 mg/L: MIC against P. mirabilis [4, 22] | MIC against S. marcescens [9, 22]
12.5 mg/L: MIC against E. coli BL21 [1, 22] | MIC against P. vulgaris [3, 22] | MIC against P. aeruginosa [7, 22] | MIC [8] | MIC against C. diversus [10, 22] | MIC against E. cloacae [11, 22]
50 mg/L: MIC against A. hydrophila [2, 22] | MIC against M. catarrhalis [5, 22] | MIC against K. pneumonia [6, 22]

PRT1090 (NNTRCLSNSCQNNSTCKDFSKDNDCSCSDTANNLDKDCD; listed as Homo sapiens)
50 mg/L: MIC M. catarrhalis [5, 23] | MIC P. aeruginosa [7, 23] | MIC E. cloacae [11, 23]
12.5 mg/L: MIC E. coli BL21 [1, 23] | MIC A. hydrophila [2, 23] | MIC P. vulgaris [3, 23] | MIC K. pneumonia [6, 23]
25 mg/L: MIC P. mirabilis [4, 23] | MIC [8] | MIC S. marcescens [9, 23] | MIC C. diversus [10, 23]

PRT1053 (QLVSCPRNVSECSHDCVLTSEGPLCFCPEGSVLERDGKTCS; listed as Homo sapiens)
50 mg/L: MIC A. hydrophila [2, 23] | MIC K. pneumonia [6, 23]
12.5 mg/L: MIC E. coli BL21 [1, 23] | MIC P. vulgaris [3, 23] | MIC M. catarrhalis [5, 23] | MIC P. aeruginosa [7, 23] | MIC [8] | MIC C. diversus [10, 23] | MIC E. cloacae [11, 23]
100 mg/L: MIC P. mirabilis [4, 23] | MIC S. marcescens [9, 23]

PRT1329 (LPAVCTPPCSAHATCKENNTCECNLDYEGDGITCT; listed as Homo sapiens)
12.5 mg/L: MIC against M. catarrhalis ([5]; Moraxella catarrhalis, 96-well plate, 5×10^5 CFU/mL, 37° C., 10 h) | MIC against P. aeruginosa ([7]; Pseudomonas aeruginosa, 96-well plate, 5×10^5 CFU/mL, 37° C., 10 h) | MIC [8] | MIC against E. cloacae ([11]; Enterobacter cloacae, 96-well plate, 5×10^5 CFU/mL, 37° C., 10 h)
50 mg/L: MIC against E. coli BL21 ([1]; E. coli BL21, 96-well plate, 5×10^5 CFU/mL, 37° C., 10 h) | MIC against A. hydrophila ([2]; Aeromonas hydrophila, 96-well plate, 5×10^5 CFU/mL, 37° C., 10 h) | MIC against K. pneumonia ([6]; Klebsiella pneumonia, 96-well plate, 5×10^5 CFU/mL, 37° C., 10 h)
25 mg/L: MIC against P. vulgaris ([3]; Proteus vulgaris, 96-well plate, 5×10^5 CFU/mL, 37° C., 10 h) | MIC against P. mirabilis ([4]; Proteus mirabilis, 96-well plate, 5×10^5 CFU/mL, 37° C., 10 h) | MIC against S. marcescens ([9]; Serratia marcescens, 96-well plate, 5×10^5 CFU/mL, 37° C., 10 h) | MIC against C. diversus ([10]; Citrobacter diversus, 96-well plate, 5×10^5 CFU/mL, 37° C., 10 h)

PRT1028 (DENECATGFHRCGPNSVCINLPGSYRCECRSGYEFADDRHTCI; listed as Homo sapiens)
25 mg/L: MIC [2, 13] | MIC [3, 14] | MIC [5, 16] | MIC [7, 18] | MIC [11, 21]
50 mg/L: MIC [1, 12] | MIC [4, 15] | MIC [6, 17] | MIC [9, 19]
12.5 mg/L: MIC [8] | MIC [10, 20]
